This is an account of results in US8466168B2, “Tricyclic alkylaminomethyloxazolidinone derivatives” (Actellon Pharmaceuticals Ltd., priority 2008, dated 2013).

Structures are written as SMILES.

The test system of this assay is S. aureus A798. Nature of the assay: MIC determination by microdilution in cation-adjusted Mueller-Hinton Broth (CLSI M7-A7). Format: cell-based. To be noted: Staphylococcus aureus, microdilution method, strain S. aureus A798. As for the experimental part:
Minimal inhibitory concentrations (MICs; mg/l) were determined in cation-adjusted Mueller-Hinton Broth by a microdilution method following the description given in “Methods for Dilution Antimicrobial Susceptibility Tests for Bacteria that Grow Aerobically”, Approved standard, 7th ed., Clinical and Laboratory Standards Institute (CLSI) Document M7-A7, Wayne, Pa., USA, 2006. All Example compounds were tested against several Gram positive and Gram negative bacteria such as S. aureus, E. faecalis, S. pneumoniae, M catarrhalis, A. baumanii, E. coli or P. aeruginosa.

As for `COc1ccc2ccc3c(c2n1)CC(CNC[C@@H]1CN(c2ccc4c(c2)NC(=O)CS4)C(=O)O1)CO3` (mixture of isomers) [Example 1, 6-((R)-5-{[((RS)-6-methoxy-3,4-dihydro-2H-1-oxa-5-aza-phenanthren-3-ylmethyl)-amino]-methyl}-2-oxo-oxazolidin-3-yl)-4H-benzo[1,4]thiazin-3-one], the MIC is at most 0.031 µg/mL.
Regarding `COc1ccc2ccc3c(c2n1)CC(CNC[C@@H]1CN(c2ccc4c(c2)NC(=O)CO4)C(=O)O1)CO3` (mixture of isomers) [Example 2, 6-((R)-5-{[((RS)-6-methoxy-3,4-dihydro-2H-1-oxa-5-aza-phenanthren-3-ylmethyl)-amino]-methyl}-2-oxo-oxazolidin-3-yl)-4H-benzo[1,4]oxazin-3-one], the MIC is at most 0.031 µg/mL.
With `COc1ccc2ncc3c(c2n1)CC(CNC[C@@H]1CN(c2ccc4c(c2)NC(=O)CO4)C(=O)O1)CO3` (mixture of isomers) [Example 3, 6-((R)-5-{[((RS)-6-methoxy-3,4-dihydro-2H-1-oxa-5,9-diaza-phenanthren-3-ylmethyl)-amino]-methyl}-2-oxo-oxazolidin-3-yl)-4H-benzo[1,4]oxazin-3-one] the figure was at most 0.031 µg/mL.
Take `COc1ccc2ncc3c(c2n1)CC(CNC[C@@H]1CN(c2ccc4c(c2)NC(=O)CS4)C(=O)O1)CO3` (mixture of isomers) [Example 4, 6-((R)-5-{[((RS)-6-methoxy-3,4-dihydro-2H-1-oxa-5,9-diaza-phenanthren-3-ylmethyl)-amino]-methyl}-2-oxo-oxazolidin-3-yl)-4H-benzo[1,4]thiazin-3-one]: the MIC is at most 0.031 µg/mL.
For `COc1ccc2ncc3c(c2n1)CC(CNC[C@@H]1CN(c2ccc4c(c2)NC(=O)CS4)C(=O)O1)CN3` (mixture of isomers) [Example 5, 6-((R)-5-{[((RS)-6-methoxy-1,2,3,4-tetrahydro-1,5,9-triaza-phenanthren-3-ylmethyl)-amino]-methyl}-2-oxo-oxazolidin-3-yl)-4H-benzo[1,4]thiazin-3-one], the MIC was at most 0.031 µg/mL.
Take `COc1ccc2ccc3c(c2n1)C(CCNC[C@@H]1CN(c2ccc4c(c2)NC(=O)CS4)C(=O)O1)CO3` (mixture of isomers) [Example 6, 6-((R)-5-{[2-((RS)-2-methoxy-8,9-dihydro-furo[2,3-h]quinolin-9-yl)-ethylamino]-methyl}-2-oxo-oxazolidin-3-yl)-4H-benzo[1,4]thiazin-3-one]: the MIC is at most 0.031 µg/mL.
The compound `COc1ccc2ccc3c(c2n1)C(CCNC[C@@H]1CN(c2ccc4c(c2)NC(=O)CO4)C(=O)O1)CO3` (mixture of isomers) [Example 7, 6-((R)-5-{[2-((RS)-2-methoxy-8,9-dihydro-furo[2,3-h]quinolin-9-yl)-ethylamino]-methyl}-2-oxo-oxazolidin-3-yl)-4H-benzo[1,4]oxazin-3-one] returned an MIC of at most 0.031 µg/mL.
`COc1ccc2ccc3c(c2n1)C(CNC[C@@H]1CN(c2ccc4c(c2)NC(=O)CS4)C(=O)O1)CO3` (mixture of isomers) [Example 8, 6-((R)-5-{[((RS)-2-methoxy-8,9-dihydro-furo[2,3-h]quinolin-9-ylmethyl)-amino]-methyl}-2-oxo-oxazolidin-3-yl)-4H-benzo[1,4]thiazin-3-one] had an MIC of at most 0.031 µg/mL.
In turn, `COc1ccc2ncc3c(c2n1)C(CCNC[C@@H]1CN(c2ccc4c(c2)NC(=O)CS4)C(=O)O1)CO3` (mixture of isomers) [Example 9, 6-((R)-5-{[2-((RS)-8-methoxy-1,2-dihydro-3-oxa-5,9-diaza-cyclopenta[a]naphthalen-1-yl)-ethylamino]-methyl}-2-oxo-oxazolidin-3-yl)-4H-benzo[1,4]thiazin-3-one] gave an MIC of at most 0.031 µg/mL.
`COc1ccc2ncc3c(c2n1)C(CCNC[C@@H]1CN(c2ccc4c(c2)NC(=O)CO4)C(=O)O1)CO3` (mixture of isomers) [Example 10, 6-((R)-5-{[2-((RS)-8-methoxy-1,2-dihydro-3-oxa-5,9-diaza-cyclopenta[a]naphthalen-1-yl)-ethylamino]-methyl}-2-oxo-oxazolidin-3-yl)-4H-benzo[1,4]oxazin-3-one] had an MIC of at most 0.031 µg/mL.
`COc1ccc2ncc3c(c2n1)C(CCNC[C@@H]1CN(c2ccc(C)c(F)c2)C(=O)O1)CO3` (mixture of isomers) [Example 11, (R)-3-(3-fluoro-4-methyl-phenyl)-5-{[2-((RS)-8-methoxy-1,2-dihydro-3-oxa-5,9-diaza-cyclopenta[a]naphthalen-1-yl)-ethylamino]-methyl}-oxazolidin-2-one] had an MIC of 0.25 µg/mL.
In turn, `COc1ccc2ncc3c(c2n1)C(CCNC[C@H]1CN(c2ccc4c(c2)NC(=O)CS4)C(=O)O1)CO3` (mixture of isomers) [Example 12, 6-((S)-5-{[2-((RS)-8-methoxy-1,2-dihydro-3-oxa-5,9-diaza-cyclopenta[a]naphthalen-1-yl)-ethylamino]-methyl}-2-oxo-oxazolidin-3-yl)-4H-benzo[1,4]thiazin-3-one] gave an MIC of at most 0.031 µg/mL.
The compound `COc1ccc2ncc3c(c2n1)C(CCNCC[C@@H]1CN(c2ccc4c(c2)NC(=O)CS4)C(=O)O1)CO3` (mixture of isomers) [Example 13, 6-((R)-5-{2-[2-((RS)-8-methoxy-1,2-dihydro-3-oxa-5,9-diaza-cyclopenta[a]naphthalen-1-yl)-ethylamino]-ethyl}-2-oxo-oxazolidin-3-yl)-4H-benzo[1,4]thiazin-3-one] came in with an MIC of at most 0.031 µg/mL.
With `COc1ccc2ncc3c(c2n1)C(CNCC[C@@H]1CN(c2ccc4c(c2)NC(=O)CS4)C(=O)O1)CO3` (mixture of isomers) [Example 14, 6-((R)-5-{2-[((RS)-8-methoxy-1,2-dihydro-3-oxa-5,9-diaza-cyclopenta[a]naphthalen-1-ylmethyl)-amino]-ethyl}-2-oxo-oxazolidin-3-yl)-4H-benzo[1,4]thiazin-3-one] the figure was at most 0.031 µg/mL.
In turn, `COc1ccc2ncc3c(c2n1)C(CNCC[C@H]1CN(c2ccc4c(c2)NC(=O)CS4)C(=O)O1)CO3` (mixture of isomers) [Example 15, 6-((S)-5-{2-[((RS)-8-methoxy-1,2-dihydro-3-oxa-5,9-diaza-cyclopenta[a]naphthalen-1-ylmethyl)-amino]-ethyl}-2-oxo-oxazolidin-3-yl)-4H-benzo[1,4]thiazin-3-one] displayed an MIC of at most 0.031 µg/mL.
As to `COc1ccc2ncc3c(c2n1)C(CCNC(=O)[C@@H]1CN(c2ccc4c(c2)OCCO4)C(=O)O1)CO3` (mixture of isomers) [Example 16, (S)-3-(2,3-dihydro-benzo[1,4]dioxin-6-yl)-2-oxo-oxazolidine-5-carboxylic acid [2-((RS)-8-methoxy-1,2-dihydro-3-oxa-5,9-diaza-cyclopenta[a]naphthalen-1-yl)-ethyl]-amide], the MIC was at most 0.031 µg/mL.
The compound `COc1ccc2ncc3c(c2n1)CC(CNC[C@@H]1CN(c2ccc4c(c2)NC(=O)CS4)C(=O)O1)O3` (mixture of isomers) [Example 17, 6-((R)-5-{[((RS)-8-methoxy-1,2-dihydro-3-oxa-5,9-diaza-cyclopenta[a]naphthalen-2-ylmethyl)-amino]-methyl}-2-oxo-oxazolidin-3-yl)-4H-benzo[1,4]thiazin-3-one] gave an MIC of at most 0.031 µg/mL.
The compound `COc1ccc2ncc3c(c2n1)CC(CNCC[C@@H]1CN(c2ccc4c(c2)NC(=O)CO4)C(=O)O1)O3` (mixture of isomers) [Example 18, 6-((R)-5-{2-[((RS)-8-methoxy-1,2-dihydro-3-oxa-5,9-diaza-cyclopenta[a]naphthalen-2-ylmethyl)-amino]-ethyl}-2-oxo-oxazolidin-3-yl)-4H-benzo[1,4]oxazin-3-one] returned an MIC of at most 0.031 µg/mL.
`COc1ccc2ncc3c(c2n1)CC(CNCC[C@@H]1CN(c2ccc4c(c2)NC(=O)CS4)C(=O)O1)O3` (mixture of isomers) [Example 19, 6-((R)-5-{2-[((RS)-8-methoxy-1,2-dihydro-3-oxa-5,9-diaza-cyclopenta[a]naphthalen-2-ylmethyl)-amino]-ethyl}-2-oxo-oxazolidin-3-yl)-4H-benzo[1,4]thiazin-3-one]: the MIC was at most 0.031 µg/mL.
`COc1ccc2ncc3c(c2n1)[C@@H](CCNCC1CN(c2ccc4c(c2)OCCO4)C(=O)O1)CO3` (mixture of isomers) [Example 20, (RS)-3-(2,3-dihydro-benzo[1,4]dioxin-6-yl)-5-{[2-((R)-8-methoxy-1,2-dihydro-3-oxa-5,9-diaza-cyclopenta[a]naphthalen-1-yl)-ethylamino]-methyl}-oxazolidin-2-one]: the MIC stood at 1 µg/mL.
